# In patent US7074190B2, “Non-invasive apparatus system for monitoring drug hepatoxicity and uses thereof” (priority 2002, dated 2006):
# What was measured:
# adult dogs [1] = assay: Blood test for drug-induced hepatotoxicity, dog experiment
# Description: Two adult dogs weighing 12 and 15 kg were used. One (coded A) of them received 500 mg/kg of body weight of acetaminophen oral solution (dissolved in water); and the other one (coded B) received a higher concentration (1,200 mg/kg of body weight) of acetaminophen via subcutaneous injection. After Nembutal was injected and the respirator was put on, the hair on the front legs of the dogs was shaved and a blood pressure waveform sensor was inserted by operation. The waveform of artery blood pressure waveform on brachial position was continuously recorded and analyzed by a computer with a frequency of 100 data per minute. After surgery and before the drug was orally taken or injected, the blood pressure waveform of each dog was measured for two hours as the baseline. After the drug was orally taken or injected, the blood pressure waveform was continuously monitored for analyzing the hepatotoxicity induced by the drug, and blood samples were periodically taken from a tube inserted into the artery for determining the level of hepatotoxicuty.
# adult dogs [2] = assay: Artery blood pressure waveform analysis before and after taking the drug, dog experiment; format: in vivo; settings: Code A dog, 500 mg/kg oral
# Description: The definition of parameter altered amount is: (the parameter value after taking the drug—the parameter value before taking the drug)/the parameter value before taking the drug *100%
# [3] = Code A dog, 500 mg/kg oral, 1 hour after the drug was administered
# [4] = Code A dog, 500 mg/kg oral, 6 hours after the drug was administered
# [5] = Code A dog, 500 mg/kg oral, 12 hours after the drug was administered
# [6] = Code B dog, 1,200 mg/kg subcutaneous injection, 1 hour after the drug was administered
# [7] = Code B dog, 1,200 mg/kg subcutaneous injection, 6 hours after the drug was administered
# [8] = Code B dog, 1,200 mg/kg subcutaneous injection, 12 hours after the drug was administered
# [9] = before and after taking the drug (12 hours)
smiles,measurement,setting,value
CC(=O)Nc1ccc(O)cc1 [acetaminophen],ALT (SGPT),adult dogs [1]; [3],25 IU/leter
same,ASG (SGOT),adult dogs [1]; [3],35 IU/leter
same,Total biliflavin,adult dogs [1]; [3],0.3 mg/dL
same,ALT (SGPT),adult dogs [1]; [4],23 IU/leter
same,ASG (SGOT),adult dogs [1]; [4],33 IU/leter
same,Total biliflavin,adult dogs [1]; [4],0.2 mg/dL
same,ALT (SGPT),adult dogs [1]; [5],24 IU/leter
same,ASG (SGOT),adult dogs [1]; [5],45 IU/leter
same,Total biliflavin,adult dogs [1]; [5],0.2 mg/dL
same,ALT (SGPT),adult dogs [1]; [6],33 IU/leter
same,ASG (SGOT),adult dogs [1]; [6],38 IU/leter
same,Total biliflavin,adult dogs [1]; [6],0.2 mg/dL
same,ALT (SGPT),adult dogs [1]; [7],37 IU/leter
same,ASG (SGOT),adult dogs [1]; [7],198 IU/leter
same,Total biliflavin,adult dogs [1]; [7],0.2 mg/dL
same,ALT (SGPT),adult dogs [1]; [8],47 IU/leter
same,ASG (SGOT),adult dogs [1]; [8],298 IU/leter
same,Total biliflavin,adult dogs [1]; [8],0.2 mg/dL
same,biliflavin,"adult dogs [1]; Code B dog, 1,200 mg/kg subcutaneous injection, acute poisoning experiment",does not raise significantly
same,ALT,"adult dogs [1]; Code B dog, 1,200 mg/kg subcutaneous injection, after 12 hours",47 IU/L
same,AST (SGOT),"adult dogs [1]; Code B dog, 1,200 mg/kg subcutaneous injection, after 12 hours, baseline 41",298 IU/liter
same,hepatotoxicity shown by blood test results,"adult dogs [1]; Code B dog, 1,200 mg/kg via subcutaneous injection",a certain level of hapatotoxicity
same,Oblique angle parameter D1 = (Bb-Aa)/ab,adult dogs [2]; 12 hours after taking the drug,D1 = (Bb-Aa)/ab = 92 mmHg/sec.
same,Oblique angle parameter D2 = (Bb-Cc)/bc,adult dogs [2]; 12 hours after taking the drug,D2 = (Bb-Cc)/bc = 350 mmHg/sec.
same,Oblique angle parameter D3 = (Dd-Cc)/cd,adult dogs [2]; 12 hours after taking the drug,D3 = (Dd-Cc)/cd = 420 mmHg/sec.
same,Oblique angle parameter D4 = (Dd-Ee)/de,adult dogs [2]; 12 hours after taking the drug,D4 = (Dd-Ee)/de = 110 mmHg/sec.
same,Oblique angle parameter D5 = D1 + D2,adult dogs [2]; 12 hours after taking the drug,D5 = D1 + D2 = 1270 mmHg/sec.
same,Oblique angle parameter D6 = D3 + D4,adult dogs [2]; 12 hours after taking the drug,D6 = D3 + D4 = 530 mmHg/sec.
same,Pressure parameter P1 = Aa,adult dogs [2]; 12 hours after taking the drug,P1 = Aa = 149 mmHg
same,Pressure parameter P2 = Bb,adult dogs [2]; 12 hours after taking the drug,P2 = Bb = 195 mmHg
same,Pressure parameter P3 = Cc,adult dogs [2]; 12 hours after taking the drug,P3 = Cc = 156 mmHg
same,Pressure parameter P4 = Dd,adult dogs [2]; 12 hours after taking the drug,P4 = Dd = 173 mmHg
same,Pressure parameter P5 = Ee,adult dogs [2]; 12 hours after taking the drug,P5 = Ee = 149 mmHg
same,Ratio parameter RA1 = A6/A5,adult dogs [2]; 12 hours after taking the drug,RA1 = A6/A5 = 1.46
same,Ratio parameter RA2 = A5/A7,adult dogs [2]; 12 hours after taking the drug,RA2 = A5/A7 = 0.41
same,Ratio parameter RA3 = A6/A7,adult dogs [2]; 12 hours after taking the drug,RA3 = A6/A7 = 0.59
same,Ratio parameter RP1 = Dd/Bb,adult dogs [2]; 12 hours after taking the drug,RP1 = Dd/Bb = 0.89
same,Ratio parameter RT1 = ab/ae,adult dogs [2]; 12 hours after taking the drug,RT1 = ab/ae = 0.12
same,Ratio parameter RT2 = ac/ae,adult dogs [2]; 12 hours after taking the drug,RT2 = ac/ae = 0.40
same,Ratio parameter RT3 = ad/ae,adult dogs [2]; 12 hours after taking the drug,RT3 = ad/ae = 0.49
same,Superficial measure parameter A1 = AabB,adult dogs [2]; 12 hours after taking the drug,A1 = AabB = 9 sec. * mmHg
same,Superficial measure parameter A2 = BbcC,adult dogs [2]; 12 hours after taking the drug,A2 = BbcC = 19 sec. * mmHg
same,Superficial measure parameter A3 = CcdD,adult dogs [2]; 12 hours after taking the drug,A3 = CcdD = 7 sec. * mmHg
same,Superficial measure parameter A4 = DdeE,adult dogs [2]; 12 hours after taking the drug,A4 = DdeE = 34 sec. * mmHg
same,Superficial measure parameter A5 = A1 + A2,adult dogs [2]; 12 hours after taking the drug,A5 = A1 + A2 = 28 sec. * mmHg
same,Superficial measure parameter A6 = A3 + A4,adult dogs [2]; 12 hours after taking the drug,A6 = A3 + A4 = 41 sec. * mmHg
same,Superficial measure parameter A7 = A5 + A6,adult dogs [2]; 12 hours after taking the drug,A7 = A5 + A6 = 69 sec. * mmHg
same,Time parameter T1 = ab,adult dogs [2]; 12 hours after taking the drug,T1 = ab = 0.05 second
same,Time parameter T2 = bc,adult dogs [2]; 12 hours after taking the drug,T2 = bc = 0.11 second
same,Time parameter T3 = cd,adult dogs [2]; 12 hours after taking the drug,T3 = cd = 0.04 second
same,Time parameter T4 = de,adult dogs [2]; 12 hours after taking the drug,T4 = de = 0.21 second
same,Time parameter T5 = ae,adult dogs [2]; 12 hours after taking the drug,T5 = ae = 0.41 second
same,Pressure parameter Altered amount P1 = Aa,adult dogs [2]; [9],P1 = Aa = 0.7 mmHg
same,Pressure parameter Altered amount P2 = Bb,adult dogs [2]; [9],P2 = Bb = 1.0 mmHg
same,Pressure parameter Altered amount P3 = Cc,adult dogs [2]; [9],P3 = Cc = 1.3 mmHg
same,Pressure parameter Altered amount P4 = Dd,adult dogs [2]; [9],P4 = Dd = 2.4 mmHg
same,Pressure parameter Altered amount P5 = Ee,adult dogs [2]; [9],P5 = Ee = 0.7 mmHg
same,Ratio parameter Altered amount RA1 = A6/A5,adult dogs [2]; [9],RA1 = A6/A5 = 12.3
same,Ratio parameter Altered amount RA2 = A5/A7,adult dogs [2]; [9],RA2 = A5/A7 = −6.8
same,Ratio parameter Altered amount RA3 = A6/A7,adult dogs [2]; [9],RA3 = A6/A7 = 5.3
same,Ratio parameter Altered amount RP1 = Dd/Bb,adult dogs [2]; [9],RP1 = Dd/Bb = 9.2
same,Ratio parameter Altered amount RT1 = ab/ae,adult dogs [2]; [9],RT1 = ab/ae = −25.0
same,Ratio parameter Altered amount RT2 = ac/ae,adult dogs [2]; [9],RT2 = ac/ae = −5.0
same,Ratio parameter Altered amount RT3 = ad/ae,adult dogs [2]; [9],RT3 = ad/ae = −11.0
same,Superficial measure parameter Altered amount A1 = AabB,adult dogs [2]; [9],Al = AabB = −10.0 sec. * mmHg
same,Superficial measure parameter Altered amount A2 = BbcC,adult dogs [2]; [9],A2 = BbcC = 11.8 sec. * mmHg
same,Superficial measure parameter Altered amount A3 = CcdD,adult dogs [2]; [9],A3 = CcdD = −12.5 sec. * mmHg
same,Superficial measure parameter Altered amount A4 = DdeE,adult dogs [2]; [9],A4 = DdeE = 25.9 sec. * mmHg
same,Superficial measure parameter Altered amount A5 = A1 + A2,adult dogs [2]; [9],A5 = A1 + A2 = 3.7 sec. * mmHg
same,Superficial measure parameter Altered amount A6 = A3 + A4,adult dogs [2]; [9],A6 = A3 + A4 = 17.1 sec. * mmHg
same,Superficial measure parameter Altered amount A7 = A5 + A6,adult dogs [2]; [9],A7 = A5 + A6 = 11.3 sec. * mmHg
same,Time parameter Altered Amount T2 = bc,adult dogs [2]; [9],T2 = bc = 10.0 second
